Measurements from US10758534B2 (Vertex Pharmaceuticals Incorporated, priority 2014, dated 2020).

What follows are molecules tested against T1, F508del (Homo sapiens, UniProt P13569, DEL508-508) (assay: Protocol 2: FRET membrane potential optical assay (VIPR), identification of correction compounds). Conditions: F508del CFTR modulator activity; compounds of Table 1; read-out: EC30.
T1 construct: expressed in transfected cells
T1 sequence (P13569 with tags, fused parts or gaps DEL508-508): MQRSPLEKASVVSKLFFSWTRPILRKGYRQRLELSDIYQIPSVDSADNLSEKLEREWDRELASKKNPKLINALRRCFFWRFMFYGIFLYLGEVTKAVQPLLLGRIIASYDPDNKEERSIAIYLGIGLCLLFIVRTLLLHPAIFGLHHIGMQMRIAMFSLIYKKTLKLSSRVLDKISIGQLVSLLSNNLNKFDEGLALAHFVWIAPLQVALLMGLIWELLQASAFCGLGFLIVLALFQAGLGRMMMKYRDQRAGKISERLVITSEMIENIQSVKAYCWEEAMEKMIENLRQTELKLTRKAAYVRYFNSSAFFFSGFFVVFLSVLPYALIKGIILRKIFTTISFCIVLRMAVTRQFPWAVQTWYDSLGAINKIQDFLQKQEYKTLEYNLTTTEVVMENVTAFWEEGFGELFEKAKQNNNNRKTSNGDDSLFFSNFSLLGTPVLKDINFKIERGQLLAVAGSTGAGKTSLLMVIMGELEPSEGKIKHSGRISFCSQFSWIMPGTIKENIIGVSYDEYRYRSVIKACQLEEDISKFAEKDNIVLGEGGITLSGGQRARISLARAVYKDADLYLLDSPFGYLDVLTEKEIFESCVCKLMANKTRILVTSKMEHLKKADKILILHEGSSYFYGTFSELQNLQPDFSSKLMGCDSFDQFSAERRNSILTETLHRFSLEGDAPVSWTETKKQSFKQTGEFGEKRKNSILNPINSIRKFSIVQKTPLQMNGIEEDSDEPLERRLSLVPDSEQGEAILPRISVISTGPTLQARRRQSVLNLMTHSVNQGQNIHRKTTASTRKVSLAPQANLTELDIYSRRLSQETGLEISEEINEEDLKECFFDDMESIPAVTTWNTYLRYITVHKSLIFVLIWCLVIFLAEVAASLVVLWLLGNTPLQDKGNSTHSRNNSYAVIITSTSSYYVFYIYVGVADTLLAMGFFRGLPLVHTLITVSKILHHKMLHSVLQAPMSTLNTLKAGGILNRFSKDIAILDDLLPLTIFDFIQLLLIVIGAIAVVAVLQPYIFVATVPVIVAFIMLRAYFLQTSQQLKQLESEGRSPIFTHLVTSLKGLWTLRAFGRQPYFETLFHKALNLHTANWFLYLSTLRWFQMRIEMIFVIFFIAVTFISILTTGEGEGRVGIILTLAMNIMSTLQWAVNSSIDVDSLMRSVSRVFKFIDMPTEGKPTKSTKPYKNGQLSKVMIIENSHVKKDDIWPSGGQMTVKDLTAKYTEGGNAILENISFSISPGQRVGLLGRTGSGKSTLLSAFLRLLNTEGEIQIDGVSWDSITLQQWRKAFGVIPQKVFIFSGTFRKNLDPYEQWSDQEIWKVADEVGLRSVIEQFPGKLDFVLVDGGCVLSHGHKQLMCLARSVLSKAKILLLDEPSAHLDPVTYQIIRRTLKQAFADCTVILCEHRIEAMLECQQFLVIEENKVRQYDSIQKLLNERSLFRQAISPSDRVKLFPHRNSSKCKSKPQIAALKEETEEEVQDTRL
Assay type: cell-based
In short: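 FRET read-out (CC2-DMPE donor, DiSBAC2(3) voltage-sensitive acceptor) of membrane depolarization on VIPR II. Corrector candidates incubated 16 hrs at 37° C. with NIH3T3 cells expressing F508del; temperature correction at 27° C. as positive control; stimulation by 10 μM forskolin, 20 μM genistein, chloride-free gluconate bath.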
Work on `CCOCCOc1ccc(C(=O)NS(=O)(=O)c2cccc(N)n2)c(N2C[C@@H](C)CC2(C)C)n1` [Compound 2678, N-[(6-amino-2-pyridyl)sulfonyl]-6-(2-ethoxyethoxy)-2-[(4S)-2,2,4-trimethylpyrrolidin-1-yl]pyridine-3-carboxamide] yielded an EC30 of 3000 to 10000 nM. With `CC(C)COc1cc(F)cc(-c2ccc(C(=O)NS(=O)(=O)N3CC[C@H](F)C3)c(N3C[C@@H](C)CC3(C)C)n2)c1` [Compound 2228, 6-(3-fluoro-5-isobutoxy-phenyl)-N-[(3S)-3-fluoropyrrolidin-1-yl]sulfonyl-2-[(4S)-2,2,4-trimethylpyrrolidin-1-yl]pyridine-3-carboxamide] the EC30 was < 3000 nM. For `CC1CN(c2nc(-n3ccc(OCC(C)(C)C)n3)ccc2C(=O)NS(=O)(=O)c2cccnc2N)C2(CCC2)C1` (single isomer, unassigned) [Compound 2358, N-[(2-amino-3-pyridyl)sulfonyl]-6-[3-(2,2-dimethylpropoxy)pyrazol-1-yl]-2-[6-methyl-8-azaspiro[3.4]octan-8-yl]pyridine-3-carboxamide], the EC30 was < 3000 nM. With `CC(C)COc1ccn(-c2ccc(C(=O)NS(=O)(=O)c3cccnc3N)c(N3CC(C)CC34CCC4)n2)n1` (single isomer, unassigned) [Compound 2194, N-[(2-amino-3-pyridyl)sulfonyl]-6-(3-isobutoxypyrazol-1-yl)-2-(6-methyl-8-azaspiro[3.4]octan-8-yl)pyridine-3-carboxamide] the EC30 was < 3000 nM. `CCCN(CCOC)c1cccc(S(=O)(=O)NC(=O)c2cccnc2N2CC(C)CC2(C)C)n1` (stereo not shown) [Compound 2343, N—[[6-[2-methoxyethyl(propyl)amino]-2-pyridyl]sulfonyl]-2-(2,2,4-trimethylpyrrolidin-1-yl)pyridine-3-carboxamide] was tested, and the EC30 was < 3000 nM. With `Cc1nc2cc(Nc3cccc(S(=O)(=O)NC(=O)c4cccnc4N4CC(C)CC4(C)C)n3)ccc2s1` (stereo not shown) [Compound 2198, N—[[6-[(2-methyl-1,3-benzothiazol-5-yl)amino]-2-pyridyl]sulfonyl]-2-(2,2,4-trimethylpyrrolidin-1-yl)pyridine-3-carboxamide] the EC30 was < 3000 nM. `Nc1cccc(S(=O)(=O)NC(=O)c2cccnc2NC2CCCCC2C2CCCCC2)n1` (stereo not shown) [Compound 2599, N-[(6-amino-2-pyridyl)sulfonyl]-2-[(2-cyclohexylcyclohexyl)amino]pyridine-3-carboxamide] gave an EC30 of 3000 to 10000 nM. In the case of `C[C@@H]1CN(c2nc(-c3ccc(Cl)cc3)ccc2C(=O)NS(=O)(=O)c2ccc[nH]c2=O)C(C)(C)C1` [Compound 2028, 6-(4-chlorophenyl)-N-[(2-oxo-1H-pyridin-3-yl)sulfonyl]-2-[(4S)-2,2,4-trimethylpyrrolidin-1-yl]pyridine-3-carboxamide], the EC30 is reported as < 3000 nM. With `Cc1cccc(-c2ccc(C(=O)NS(=O)(=O)N3CC[C@H](N)C3)c(N3C[C@@H](C)CC3(C)C)n2)c1C` [Compound 2225, N-[(3S)-3-aminopyrrolidin-1-yl]sulfonyl-6-(2,3-dimethylphenyl)-2-[(4S)-2,2,4-trimethylpyrrolidin-1-yl]pyridine-3-carboxamide] the EC30 was 3000 to 10000 nM. In the case of `CC1CN(c2ncccc2C(=O)NS(=O)(=O)c2cccc(N(C)Cc3cccc(Cl)c3)n2)C(C)(C)C1` (stereo not shown) [Compound 2378, N—[[6-[(3-chlorophenyl)methyl-methyl-amino]-2-pyridyl]sulfonyl]-2-(2,2,4-trimethylpyrrolidin-1-yl)pyridine-3-carboxamide], the EC30 is reported as < 3000 nM. `COc1ccc(Cl)cc1Oc1cccc(S(=O)(=O)NC(=O)c2cccnc2N2CC(C)CC2(C)C)n1` (stereo not shown) [Compound 2503, N—[[6-(5-chloro-2-methoxy-phenoxy)-2-pyridyl]sulfonyl]-2-(2,2,4-trimethylpyrrolidin-1-yl)pyridine-3-carboxamide] was tested, and the EC30 was < 3000 nM. In the case of `C[C@@H]1CN(c2nc(-c3cccc(F)c3)ccc2C(=O)NS(=O)(=O)c2cccc(N)n2)C(C)(C)C1` [Compound 2566, N-[(6-amino-2-pyridyl)sulfonyl]-6-(3-fluorophenyl)-2-[(4S)-2,2,4-trimethylpyrrolidin-1-yl]pyridine-3-carboxamide], the EC30 is reported as < 3000 nM. With `CC1CN(c2ncccc2C(=O)NS(=O)(=O)c2cccc(Oc3ccc(Cl)cn3)n2)C(C)(C)C1` (stereo not shown) [Compound 2736] the EC30 was 3000 to 10000 nM. In the case of `CC(C)Cc1ccc(-c2cnc(N3CC(C)CC3(C)C)c(C(=O)NS(=O)(=O)c3cccc(N)n3)c2)cc1` (stereo not shown) [Compound 2395, N-[(6-amino-2-pyridyl)sulfonyl]-5-(4-isobutylphenyl)-2-(2,2,4-trimethylpyrrolidin-1-yl)pyridine-3-carboxamide], the EC30 is reported as < 3000 nM. For `CC1CN(c2ncccc2C(=O)NS(=O)(=O)c2cccc(OCc3ccco3)n2)C(C)(C)C1` (stereo not shown) [Compound 2308, N—[[6-(2-furylmethoxy)-2-pyridyl]sulfonyl]-2-(2,2,4-trimethylpyrrolidin-1-yl)pyridine-3-carboxamide], the EC30 was < 3000 nM. In the case of `CC(C)Cn1ccc(-c2cnc(N3CC(C)CC3(C)C)c(C(=O)NS(=O)(=O)c3cccc(N)n3)c2)n1` (stereo not shown) [Compound 2303, N-[(6-amino-2-pyridyl)sulfonyl]-5-(1-isobutylpyrazol-3-yl)-2-(2,2,4-trimethylpyrrolidin-1-yl)pyridine-3-carboxamide], the EC30 is reported as 3000 to 10000 nM. `C[C@@H]1CC[C@H](C)N1c1nc(-n2ccc(-c3ccccc3)n2)ccc1C(=O)NS(=O)(=O)C1CC1` [Compound 2676, N-cyclopropylsulfonyl-2-[(2S,5R)-2,5-dimethylpyrrolidin-1-yl]-6-(3-phenylpyrazol-1-yl)pyridine-3-carboxamide] was tested, and the EC30 was < 3000 nM.

Same assay, conditions: Table 3; compounds of Table 1 as modulators of CFTR activity; protocol not stated
In the case of `COc1ccccc1S(=O)(=O)NC(=O)C1c2ccccc2CN1Cc1c(C)cc(C)cc1C` (stereo not shown) [Compound 79, N-(2-methoxyphenyl)sulfonyl-2-[(2,4,6-trimethylphenyl)methyl]isoindoline-1-carboxamide], the EC30 is reported as “++ (“++” means between 3 uM and 10 uM)”. In the case of `CC(C)COc1cc(F)cc(-c2ccc(C(=O)NS(=O)(=O)c3cccc(N)n3)c(N3CCCC3(C)Cc3ccccc3)n2)c1` (stereo not shown) [Compound 663, N-[(6-amino-2-pyridyl)sulfonyl]-2-(2-benzyl-2-methyl-pyrrolidin-1-yl)-6-(3-fluoro-5-isobutoxy-phenyl)pyridine-3-carboxamide], the EC30 is reported as “+++ (“+++” means <3 uM)”. In the case of `CC(C)COc1cc(F)cc(-c2ccc(C(=O)NS(=O)(=O)c3cccc(N)n3)c(N3CCCCC3)n2)c1` [Compound 380, N-[(6-amino-2-pyridyl)sulfonyl]-6-(3-fluoro-5-isobutoxy-phenyl)-2-(1-piperidyl)pyridine-3-carboxamide], the EC30 is reported as “+++ (“+++” means <3 uM)”. With `Cc1cc(C)c(CN2CCCc3ccccc3C2C(=O)NS(=O)(=O)c2cccc(N)n2)c(C)c1` (stereo not shown) [Compound 696, N-[(6-amino-2-pyridyl)sulfonyl]-2-[(2,4,6-trimethylphenyl)methyl]-1,3,4,5-tetrahydro-2-benzazepine-1-carboxamide] the EC30 was “+++ (“+++” means <3 uM)”. In the case of `CC(C)COc1cc(F)cc(-c2ccc(C(=O)NS(=O)(=O)c3cccc(N)n3)c(N3CCC(C)C(C)(C)C3)n2)c1` (stereo not shown) [Compound 575, N-[(6-amino-2-pyridyl)sulfonyl]-6-(3-fluoro-5-isobutoxy-phenyl)-2-(3,3,4-trimethyl-1-piperidyl)pyridine-3-carboxamide], the EC30 is reported as “+++ (“+++” means <3 uM)”. For `COCc1cccc(-c2ccc(C(=O)NS(=O)(=O)c3cccc(N)n3)c(Oc3c(C)cc(C)cc3C)n2)c1` [Compound 69, N-[(6-amino-2-pyridyl)sulfonyl]-6-[3-(methoxymethyl)phenyl]-2-(2,4,6-trimethylphenoxy)pyridine-3-carboxamide], the EC30 was “+++ (“+++” means <3 uM)”. In the case of `COc1cccc(-c2cc(C(=O)NS(=O)(=O)c3ccccc3)n(Cc3c(C)cccc3C)n2)c1` [Compound 176, N-(benzenesulfonyl)-2-[(2,6-dimethylphenyl)methyl]-5-(3-methoxyphenyl)pyrazole-3-carboxamide], the EC30 is reported as “+++ (“+++” means <3 uM)”. With `Cc1cc(C)c(Cn2nc(C(C)(C)C)cc2C(=O)NS(=O)(=O)c2cccc(Cl)c2)c(C)c1` [Compound 472, 5-tert-butyl-N-(3-chlorophenyl)sulfonyl-2-[(2,4,6-trimethylphenyl)methyl]pyrazole-3-carboxamide] the EC30 was “+ (“+” means greater than 10 uM)”. In the case of `CCOc1ccc(-c2ccc(C(=O)NS(=O)(=O)c3cccc(N)n3)c(Oc3c(C)cc(C)cc3C)n2)cc1F` [Compound 161, N-[(6-amino-2-pyridyl)sulfonyl]-6-(4-ethoxy-3-fluoro-phenyl)-2-(2,4,6-trimethylphenoxy)pyridine-3-carboxamide], the EC30 is reported as “+++ (“+++” means <3 uM)”. In the case of `CCOc1ccc(-c2ccc(C(=O)NS(=O)(=O)c3nccnc3N)c(Oc3ccc(C)cc3C)n2)cc1` [Compound 434, N-(3-aminopyrazin-2-yl)sulfonyl-2-(2,4-dimethylphenoxy)-6-(4-ethoxyphenyl)pyridine-3-carboxamide], the EC30 is reported as “+++ (“+++” means <3 uM)”. For `CC(C)COc1cccc(-c2ccc(C(=O)NS(=O)(=O)c3cccc(N)n3)c(N3CCC(C)CC3)n2)c1` [Compound 777, N-[(6-amino-2-pyridyl)sulfonyl]-6-(3-isobutoxyphenyl)-2-(4-methyl-1-piperidyl)pyridine-3-carboxamide], the EC30 was “+++ (“+++” means <3 uM)”. For `CC(C)Oc1ccc(-c2ccc(C(=O)NS(=O)(=O)c3cccc(N)n3)c(N3CCCC(C)C3C)n2)cn1` (stereo not shown) [Compound 353, N-[(6-amino-2-pyridyl)sulfonyl]-2-(2,3-dimethyl-1-piperidyl)-6-(6-isopropoxy-3-pyridyl)pyridine-3-carboxamide], the EC30 was “+++ (“+++” means <3 uM)”. `CC(C)(C)c1cc(C(=O)NS(=O)(=O)c2cccc(N)c2)n(Cc2c(F)cccc2C(F)(F)F)n1` [Compound 239, N-(3-aminophenyl)sulfonyl-5-tert-butyl-2-[[2-fluoro-6-(trifluoromethyl)phenyl]methyl]pyrazole-3-carboxamide] was tested, and the EC30 was “+++ (“+++” means <3 uM)”. In the case of `CC(c1ccccc1)N1Cc2ccccc2C1C(=O)NS(=O)(=O)c1cccc(N)c1` (stereo not shown) [Compound 187, N-(3-aminophenyl)sulfonyl-2-(1-phenylethyl)isoindoline-1-carboxamide], the EC30 is reported as “++ (“++” means between 3 uM and 10 uM)”.
